Type in all cases: biochemical
The target in one assay is PDE1B (Homo sapiens (Human), UniProt Q01064). Description: PDE1 inhibition assay (PDE1B). The note with it: 15 nM tritium labelled cAMP, 1 hr at room temperature, SPA beads; read-out: PDE1B, IC50. The source says: (§1) Table 1 lists the IC50 value for inhibition of PDE1 by the compounds of the invention. […] PDE1 assays are described in the Experimental Section.
The target of another assay is PDE1A (Homo sapiens (Human), UniProt P54750). Kind of assay: biochemical. The note with it: 15 nM tritium labelled cAMP, 1 hr at room temperature, SPA beads.
Text: as §1

The target in another assay is PDE1C (Homo sapiens (Human), UniProt Q14123). Description: biochemical. Conditions: 15 nM tritium labelled cAMP, 1 hr at room temperature, SPA beads.
Text: as §1

In patent US10034861B2 (priority 2016, dated 2018) one finds IC50 data, which are given here for 11 compounds.

Chain of PDE1A (P54750 whole entry): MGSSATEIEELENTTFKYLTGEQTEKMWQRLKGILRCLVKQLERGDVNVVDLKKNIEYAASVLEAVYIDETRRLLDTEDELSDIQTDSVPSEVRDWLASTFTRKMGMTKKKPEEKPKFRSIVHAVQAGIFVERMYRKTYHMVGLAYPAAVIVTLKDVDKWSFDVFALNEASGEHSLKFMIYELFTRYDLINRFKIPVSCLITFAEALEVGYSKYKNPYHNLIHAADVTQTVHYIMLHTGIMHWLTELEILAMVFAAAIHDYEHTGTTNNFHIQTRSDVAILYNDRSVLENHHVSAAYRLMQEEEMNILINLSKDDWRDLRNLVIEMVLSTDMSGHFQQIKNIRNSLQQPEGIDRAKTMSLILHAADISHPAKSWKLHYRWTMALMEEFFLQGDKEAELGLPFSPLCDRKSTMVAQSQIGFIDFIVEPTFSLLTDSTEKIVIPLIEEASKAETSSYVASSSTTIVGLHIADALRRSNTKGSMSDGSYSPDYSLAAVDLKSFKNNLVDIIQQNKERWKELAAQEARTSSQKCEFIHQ
Chain of PDE1B (Q01064 whole entry): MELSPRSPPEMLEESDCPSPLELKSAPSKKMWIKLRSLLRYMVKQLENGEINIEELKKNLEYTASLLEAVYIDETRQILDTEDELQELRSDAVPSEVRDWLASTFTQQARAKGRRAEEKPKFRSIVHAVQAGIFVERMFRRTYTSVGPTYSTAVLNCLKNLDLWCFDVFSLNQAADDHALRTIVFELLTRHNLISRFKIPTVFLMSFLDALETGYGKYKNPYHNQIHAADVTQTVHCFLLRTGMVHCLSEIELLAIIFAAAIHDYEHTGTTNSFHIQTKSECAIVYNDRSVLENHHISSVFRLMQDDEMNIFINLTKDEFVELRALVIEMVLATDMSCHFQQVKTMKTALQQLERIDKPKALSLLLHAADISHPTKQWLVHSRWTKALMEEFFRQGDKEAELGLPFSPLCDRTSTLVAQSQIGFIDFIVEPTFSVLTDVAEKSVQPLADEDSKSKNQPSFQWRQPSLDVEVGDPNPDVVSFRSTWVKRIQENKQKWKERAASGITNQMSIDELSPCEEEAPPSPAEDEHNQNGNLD
Chain of PDE1C (Q14123 whole entry): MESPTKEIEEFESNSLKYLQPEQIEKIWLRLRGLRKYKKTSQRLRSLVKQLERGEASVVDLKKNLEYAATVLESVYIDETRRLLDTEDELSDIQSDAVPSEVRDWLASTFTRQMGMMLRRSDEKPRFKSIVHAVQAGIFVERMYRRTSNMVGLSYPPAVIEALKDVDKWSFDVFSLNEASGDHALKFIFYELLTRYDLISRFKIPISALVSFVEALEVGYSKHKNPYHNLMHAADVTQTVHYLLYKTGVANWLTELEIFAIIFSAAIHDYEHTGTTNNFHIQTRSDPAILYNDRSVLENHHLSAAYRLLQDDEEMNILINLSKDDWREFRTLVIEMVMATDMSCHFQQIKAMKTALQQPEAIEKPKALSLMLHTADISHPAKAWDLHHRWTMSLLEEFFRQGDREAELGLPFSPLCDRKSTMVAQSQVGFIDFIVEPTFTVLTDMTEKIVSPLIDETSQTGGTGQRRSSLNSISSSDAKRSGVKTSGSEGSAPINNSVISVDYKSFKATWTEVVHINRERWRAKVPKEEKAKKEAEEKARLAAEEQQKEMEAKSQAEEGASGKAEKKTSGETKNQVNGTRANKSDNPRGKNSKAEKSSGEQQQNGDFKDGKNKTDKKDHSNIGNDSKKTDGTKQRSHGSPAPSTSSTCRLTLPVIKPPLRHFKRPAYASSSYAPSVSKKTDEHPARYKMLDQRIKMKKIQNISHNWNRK

One may read the IC50 as the concentration that gives 50% inhibition. For the compound `CCOc1ncccc1-c1cc(NCc2cnc(OC)cn2)c2c(n1)c(C)nn2C(C)C` [Example 114, 5-(2-ethoxy-3-pyridyl)-1-isopropyl-N-[(5-methoxypyrazin-2-yl)methyl]-3-methyl-pyrazolo[4,3-b]pyridin-7-amine], the results for the IC50 on PDE1B, against PDE1A and on PDE1C were 3 nM, 24 nM and 46 nM, respectively.
For `CCOc1ncccc1-c1cc(NCc2cccnc2OC)c2c(n1)c(C)nn2C1COC1` [Example 197, 5-(2-ethoxy-3-pyridyl)-N-[(2-methoxy-3-pyridyl)methyl]-3-methyl-1-(oxetan-3-yl)pyrazolo[4,3-b]pyridin-7-amine] the same measures were 13 nM, 190 nM and 190 nM.
For `CCOc1ncccc1-c1cc(NCc2cncc(OC)n2)c2c(n1)c(C)nn2C(C)C` [Example 82, 5-(2-ethoxy-3-pyridyl)-1-isopropyl-N-[(6-methoxypyrazin-2-yl)methyl]-3-methyl-pyrazolo[4,3-b]pyridin-7-amine] the same measures were 1 nM, 16 nM and 35 nM.
For `CCOc1ncccc1-c1cc(NCc2ccc(F)nc2)c2c(n1)c(C)nn2C(C)C` [Example 116, 5-(2-ethoxy-3-pyridyl)-N-[(6-fluoro-3-pyridyl)methyl]-1-isopropyl-3-methyl-pyrazolo[4,3-b]pyridin-7-amine] the same measures were 2.4 nM, 21 nM and 46 nM.
With `CCOc1ncccc1-c1cc(NCc2ccccc2OC)c2c(n1)c(C)nn2C(C)C` [Example 88, 5-(2-ethoxy-3-pyridyl)-1-isopropyl-N-[(2-methoxyphenyl)methyl]-3-methyl-pyrazolo[4,3-b]pyridin-7-amine], the half-maximal inhibitory concentration (IC50) was 5.1 nM on PDE1B, 110 nM on PDE1A and 170 nM on PDE1C.
On to `CCOc1ncccc1-c1cc(NCc2ccccc2C(F)(F)F)c2c(n1)c(C)nn2C(C)C` [Example 90, 5-(2-ethoxy-3-pyridyl)-1-isopropyl-3-methyl-N-[[2-(trifluoromethyl)phenyl]methyl]pyrazolo[4,3-b]pyridin-7-amine], for which the IC50 was found to be 12 nM at PDE1B, 270 nM on PDE1A and 640 nM on PDE1C.
Consider `CCOc1ncccc1-c1cc(NCc2nnc(C)s2)c2c(n1)c(C)nn2C(C)C` [Example 33, 5-(2-ethoxy-3-pyridyl)-1-isopropyl-3-methyl-N-[(5-methyl-1,3,4-thiadiazol-2-yl)methyl]pyrazolo[4,3-b]pyridin-7-amine], for which the values for the half-maximal inhibitory concentration (IC50) at PDE1B, against PDE1A and against PDE1C were 0.41 nM, 1.6 nM and 7.9 nM, respectively.
`CCOc1ncccc1-c1cc(NCc2cn(C)cn2)c2c(n1)c(C)nn2C(C)C` [Example 58, 5-(2-ethoxypyridin-3-yl)-1-isopropyl-3-methyl-N-((1-methyl-1H-imidazol-4-yl)methyl)-1H-pyrazolo[4,3-b]pyridin-7-amine 2,2,2-trifluoroacetate]: the IC50 amounted to 0.17 nM on PDE1B, 1.1 nM against PDE1A and 2.1 nM at PDE1C.
In the case of `CCOc1ncccc1-c1cc(NCc2ccc(C)cc2)c2c(cnn2C(C)C)n1` [Example 24, 5-(2-ethoxy-3-pyridyl)-1-isopropyl-N-(p-tolylmethyl)pyrazolo[4,3-b]pyridin-7-amine], the figures for the concentration for half-maximal inhibition (IC50) on PDE1B, against PDE1A and against PDE1C were 160 nM, 380 nM and 1200 nM, respectively.
On to `Cc1nn(C)cc1-c1cc(NCc2cnn(C)c2)c2c(n1)c(C)nn2C(C)C` [Example 61, 5-(1,3-dimethylpyrazol-4-yl)-1-isopropyl-3-methyl-N-[(1-methylpyrazol-4-yl)methyl]pyrazolo[4,3-b]pyridin-7-amine], for which the values for the half-maximal inhibitory concentration (IC50) on PDE1B, at PDE1A and against PDE1C were 120 nM, 550 nM and 680 nM, respectively.
Take `CCOc1ncccc1-c1cc(NCc2cn(C)nn2)c2c(n1)c(C)nn2C(C)C` [Example 6, 5-(2-ethoxy-3-pyridyl)-1-isopropyl-3-methyl-N-[(1-methyltriazol-4-yl)methyl]pyrazolo[4,3-b]pyridin-7-amine]: the half-maximal inhibitory concentration (IC50) is 0.22 nM at PDE1B, 4.8 nM on PDE1A and 5.6 nM against PDE1C.
